Holding throughout (test): NCI tumour cell line growth inhibition, 48 h
The test system of test [1] is ACHN.
Test [2] has as its system HOP-62.
In test [3] the test system is HOP-92.
Test [4] deals with HT-29.
Test [5] relates to Hs-578T.
For test [6], the system named is KM12.
The test system of test [7] is LOX IMVI.
Test [8] concerns M14.
In test [9] the test system is MDA-N.
Test [10] deals with NCI-H23.
In test [11] the test system is NCI-H522.
The subject of test [12] is NCI/ADR-RES.
Test [13] deals with PC-3.
In test [14] the test system is RPMI-8226.
For test [15], the system named is SK-MEL-5.
Test [16] concerns SW-620.
Test [17] deals with T47D.
Test [18] concerns UO-31.

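Test compounds were applied to cells in 96-well plates for 48 hours at 5 doses. At the GI50, growth is halved.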 Activity calls are given as the source filed them. No stated cut-off is given here; in the data, active = GI50 up to about 1.1 µM and inactive = higher.

With `CCOC(=O)c1nc2cc(C(F)(F)F)ccc2nc1Nc1ccc(OC)cc1`, the GI50 in [1] is 86.9 µM (inactive); in [2] it was 42.5 µM (inactive); in test [3] it was 36.6 µM (inactive); in [4], > 100 µM (inactive); in test [5] it was 54.1 µM (inactive); in [6], > 100 µM (inactive). For the same compound, the GI50 in [7] was 41.5 µM (inactive); in test [8], > 100 µM (inactive); in test [9], > 100 µM (inactive); in test [10], > 100 µM (inactive); in test [11], > 100 µM (inactive); in test [12] it was > 100 µM (inactive). In addition, the GI50 is > 100 µM (inactive) in test [13]; > 100 µM (inactive) in test [14]; > 100 µM (inactive) in test [15]; > 100 µM (inactive) in test [16]; 95.1 µM (inactive) in [17]; > 100 µM (inactive) in test [18].
As for `NC(=O)C(=CNC(=S)Nc1ccc(Cl)c(Cl)c1)C(N)=O`, the GI50 is > 94 µM (inactive) in [1]; > 100 µM (inactive) in [2]; 33.1 µM (inactive) in [3]; 46.3 µM (inactive) in [4]; 30.3 µM (inactive) in test [5]; 55.1 µM (inactive) in test [6]. Further, the GI50 was > 92.3 µM (inactive) in test [7]; > 100 µM (inactive) in test [8]; 47.4 µM (inactive) in [9]; > 92.3 µM (inactive) in test [10]; 17.5 µM (inactive) in test [11]; 85.1 µM (inactive) in test [12]. Besides, the GI50 in test [13] was > 66.4 µM (inactive); in [14] it was 36.1 µM (inactive); in [15] it was 42.3 µM (inactive); in [16] it was > 100 µM (inactive); in [17], 12.2 µM (inactive); in test [18] it was 16.5 µM (inactive).
`COc1ccc(Cc2c(N)[nH]c(=O)[nH]c2=O)cc1`: the GI50 in test [1] was > 100 µM (inactive); in test [2], > 100 µM (inactive); in test [3], 33.3 µM (inactive); in test [4], > 100 µM (inactive); in test [5] it was > 100 µM (inactive); in test [6], > 100 µM (inactive). Moreover, the GI50 in test [7], in test [8], in test [9], in [10], in test [11] and in test [12] was > 100 µM (inactive) throughout. Moreover, the GI50 was > 100 µM (inactive) in test [13]; 22 µM (inactive) in test [14]; > 100 µM (inactive) in test [15]; > 100 µM (inactive) in test [16]; > 100 µM (inactive) in test [17]; 90.2 µM (inactive) in test [18].
Turning to `CCN(CCCl)c1cc(CN(C)C)cc(NC(=O)c2ccc(C(=O)Nc3cccc(N(CCCl)NN)c3)cc2)c1`, the GI50 in test [1] was < 0.01 µM (active); in test [2] it was 0.0453 µM (active); in test [3], 0.0789 µM (active); in test [4], 0.0154 µM (active); in test [5] it was 0.0186 µM (active); in [6], 0.123 µM (active). The GI50 is < 0.01 µM (active) in test [7]; 0.0224 µM (active) in test [8]; 0.0301 µM (active) in [9]; 0.0242 µM (active) in test [10]; < 0.01 µM (active) in test [11]; 1.97 µM (inactive) in [12]. The GI50 in test [13] is 0.0142 µM (active); in test [14], 0.0492 µM (active); in [15], 0.0461 µM (active); in test [16], < 0.01 µM (active); in [17], 0.0612 µM (active); in test [18], 0.462 µM (active).
Take `O=C(NCCCl)Nc1ccccc1`: the GI50 in [1], in test [2], in [3], in test [4], in test [5] and in test [6] was > 100 µM (inactive) each time. The GI50 in [7], in [9], in test [10], in test [11], in [12] and in test [13] was > 100 µM (inactive) in each case. Besides, the GI50 in test [14], in test [15], in [16], in [17] and in [18] was > 100 µM (inactive) in each case.
On to `Nc1cc(CO)cc(Nc2c3ccccc3nc3occc23)c1`, for which the GI50 in test [1] is 29.8 µM (inactive); in test [2], 37.2 µM (inactive); in test [3] it was 29.1 µM (inactive); in test [4], 6.76 µM (inactive); in test [5] it was 31 µM (inactive); in test [6], 33.8 µM (inactive). Besides, the GI50 in test [7] was 36.6 µM (inactive); in [8], 33.6 µM (inactive); in [9], 25.9 µM (inactive); in test [10], 28.9 µM (inactive); in test [11], 14.4 µM (inactive); in test [12], 22.4 µM (inactive). Further, the GI50 is 64 µM (inactive) in [13]; 26.5 µM (inactive) in [14]; 23.1 µM (inactive) in test [15]; 29.6 µM (inactive) in [17]; 32.2 µM (inactive) in test [18].
Turning to `O=C(O)C(O)c1ccc(F)cc1` (stereo unspecified), the GI50 in [1], in test [2], in [3], in test [4], in test [5] and in test [6] was > 100 µM (inactive) each time. In addition, the GI50 in test [7], in test [8], in [9], in test [10], in test [11] and in test [12] was > 100 µM (inactive) in each case. The GI50 in test [13], in test [14], in test [16], in [17] and in [18] was > 100 µM (inactive) each time.
Regarding `Cc1ccc(Nc2c(C#N)[n+]([O-])c3cc(Cl)ccc3[n+]2[O-])cc1`, the GI50 in test [1] is 11.2 µM (inactive); in test [2], 43.1 µM (inactive); in [3] it was > 100 µM (inactive); in [4] it was 11.2 µM (inactive); in test [5], > 100 µM (inactive); in [6] it was 12.6 µM (inactive). The GI50 was 6.85 µM (inactive) in [7]; 30.3 µM (inactive) in [8]; > 53.8 µM (inactive) in [9]; 40.5 µM (inactive) in [10]; 11.4 µM (inactive) in [11]; 9.95 µM (inactive) in [12]. Also, the GI50 in [13] was 9.66 µM (inactive); in test [14], 4.61 µM (inactive); in [16], 37.5 µM (inactive); in [17], > 100 µM (inactive); in [18], 82.4 µM (inactive).
For the compound `O=[N+]([O-])c1ccccc1S(=O)(=O)c1cc(O)cc2c1NCCC2`, the GI50 was 14.2 µM (inactive) in test [1]; 21 µM (inactive) in [2]; 0.612 µM (active) in test [3]; 13.3 µM (inactive) in test [4]; 27.4 µM (inactive) in [5]; 18.7 µM (inactive) in test [6]. The GI50 in [7] is 14.2 µM (inactive); in test [8] it was 17 µM (inactive); in test [9], 17.8 µM (inactive); in [10], 19.9 µM (inactive); in [11], 7.5 µM (inactive); in test [12], 21.4 µM (inactive). Also, the GI50 in [13] was 14.7 µM (inactive); in test [15], 13.9 µM (inactive); in [16] it was 8.41 µM (inactive); in test [17], 6.35 µM (inactive); in [18], 15.5 µM (inactive).
Turning to `Cc1cccc2c1CC1(Cc3c(C)cccc3C1=O)C2=O`, the GI50 in [1], in [2], in [3], in test [4], in test [5] and in [7] was > 100 µM (inactive) each time. The GI50 in [8], in [9], in test [10], in test [11], in test [12] and in test [13] was > 100 µM (inactive) in each case. Further, the GI50 in test [14], in test [15], in test [16], in test [17] and in [18] was > 100 µM (inactive) throughout.
As for `CN(C)CCOc1ccc2[nH]c(C(=O)N3CC(CCl)c4c3cc(NC(=O)OCc3ccc([N+](=O)[O-])cc3)c3ccccc43)cc2c1` (stereo unspecified), the GI50 in [1] was 0.689 µM (active); in test [2] it was 1.47 µM (inactive); in test [3], 1.5 µM (inactive); in test [5], 2.3 µM (inactive); in [6] it was 1.29 µM (inactive); in test [7], 1.45 µM (inactive). The GI50 in test [8] was 1.63 µM (inactive); in test [9], 1.6 µM (inactive); in [10], 1.36 µM (inactive); in [11], 1.12 µM (inactive); in test [12], 1.34 µM (inactive); in [13] it was 1.46 µM (inactive). Also, the GI50 in test [14] was 0.493 µM (active); in [15] it was 1.45 µM (inactive); in test [16], 1.19 µM (inactive); in test [17], 1.55 µM (inactive); in test [18], 1.28 µM (inactive).

Source of the values: ChEMBL document CHEMBL1201862, “PubChem BioAssay data set” (2004).
